Test results taken from patent publication US10233209B2, “Inhibitors of the farnesoid x receptor and uses in medicine” (The United States of America, as represented by the …, priority 2013, dated 2019).

Biological target: T1, human FXR (Homo sapiens, UniProt Q96RI1)
T1 construct: expressed in transfected cells; host or cells: HEK293T
T1 sequence (Q96RI1 262-486 limits assumed): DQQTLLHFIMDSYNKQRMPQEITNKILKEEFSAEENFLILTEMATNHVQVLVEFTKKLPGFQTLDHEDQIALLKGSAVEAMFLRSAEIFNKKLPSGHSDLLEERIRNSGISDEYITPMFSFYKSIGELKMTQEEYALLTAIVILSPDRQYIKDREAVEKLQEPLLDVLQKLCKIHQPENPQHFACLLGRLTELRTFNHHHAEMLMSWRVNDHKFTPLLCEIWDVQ
Test: human FXR competition assay (GAL4-FXR chimeric receptor luciferase, HEK293T)
Assay type: cell-based
Conditions: in the presence of GW4064
Experimental: Luciferase detection was conducted using the Dual Luciferase Reporter Assay kit (Promega Corp., Madison, Wis.) and a Tecan GeniosPro luminescent plate reader (Research Triangle Park, N.C.).
Luciferase detection was conducted using the Dual Luciferase Reporter Assay kit (Promega; Madison, Wis.) and a Tecan GeniosPro™ luminescent plate reader (Research Triangle Park, N.C.).

Compound | FXR activity induced by synthetic agonist GW4064 (luciferase, normalized to Renilla)
C[C@H](CCC(=O)NCCS(=O)(=O)O)[C@H]1CC[C@H]2[C@@H]3[C@@H](O)[C@H](O)[C@@H]4C[C@H](O)CC[C@]4(C)[C@H]3CC[C@]12C [TWMCA] | inhibited FXR
C[C@H](CCC(=O)NCCS(=O)(=O)O)[C@H]1CC[C@H]2[C@@H]3[C@H](O)[C@@H](O)[C@@H]4C[C@H](O)CC[C@]4(C)[C@H]3CC[C@]12C [TαMCA] | inhibited FXR
